The test system of experiment [1] is SW480 colon carcinoma cells. The experiment is described as follows: Cell viability assay (CellTiter-Glo) in SW480 cells.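 As to all read-outs here: SW480 cells stably carrying an Sp5-luciferase TCF/LEF reporter, luminescent ATP signal as viability measure, DMSO-treated cells as control.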 The class given is cell-based, human. To be noted: Homo sapiens; for pEC50: 96 h, cell viability, SW480 cells, four days, CellTiter-Glo; for inhibition at 10 µM: SW480, read-out: percent inhibition at 10 μM.
A further experiment concerns the target GSK3β kinase (Homo sapiens (Human), UniProt P49841). In words: GSK3β kinase assay (Ser/Thr 09 peptide Z-lyte, FRET).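 Also: Coumarin/fluorescein emission ratio converted to percent phosphorylation against unphosphorylated (0%) and phosphorylated (100%) controls, 1 h compound incubation at room temperature, 11-point threefold dilutions from 10 µM, run in duplicate.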 The class given is biochemical. To be noted: method text calls the value IC50.
The next experiment deals with IL-6. In words: IL-6 inhibition in LPS-stimulated human peripheral blood mononuclear cells (HTRF). The class given is cell-based. To be noted: Homo sapiens, PBMC; for inhibition at 10 µM: read-out: percent value in parentheses below EC50 >10; for pEC50: IL-6, LPS-stimulated huPBMCs, HTRF. The method, boiled down:
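Fresh human PBMCs (5000 cells/well, 1% FBS RPMI) preincubated with compound (10-point 1:3 series from 10 μM, 0.25% DMSO) 2 h at 37 °C, then stimulated with 50 ng/mL E. coli LPS for 22 h. IL-6 by HTRF 665/620 ratio; DMSO-normalized, EC50 from 4-parameter fit.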

The subject of experiment [2] is LL29 cells (primary human fibroblasts derived from IPF patients), α-smooth muscle actin. The experiment is described as follows: Inhibition of fibrotic process: αSMA in TGF-β1-treated primary human fibroblasts from IPF patients (LL29 cells). In kind it is cell-based. To be noted: Homo sapiens, Fibroblast; for pEC50: 96 h, % αSMA-positive LL29 cells, TGF-β1 20 ng/mL, 4 days; for inhibition at 10 µM: read-out: percent inhibition at 10 μM. The method, boiled down: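 IPF-patient lung fibroblasts (LL29) were stimulated with TGF-β1 (20 ng/mL) in 1% FBS medium with compound (11-point 1:2 series, 0.1% DMSO) for 4 days at 37 °C. Fixed cells were immunostained for αSMA and imaged, excluding SYTOX-positive dead cells. The % αSMA-positive cells was normalized to TGF-β1/DMSO control wells.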

For experiment [3], the system named is Tau phosphorylation at Ser396 (pSer396), SH-SY5Y cells. The experiment is described as follows: Tau phosphorylation at Ser396 (pSer396) in SH-SY5Y cells, ELISA/western blot.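 Also: cell lysates probed for reduced Tau pSer396 via ELISA (colorimetric) or western blot (chemiluminescence), both with one shared pSer396 antibody, EC50 for lowering phosphorylation.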 In kind it is cell-based, human. To be noted: Homo sapiens; SH-SY5Y cells, overnight (16-18 h); read-out: pSer396 Tau EC50.
Method: Two days before treatment, cells were seeded onto 96 well plates at 5×10^4 cells/well.
Wells were visually checked for cell death or change in morphology and supernatants were tested for cytotoxicity by measurement of lactate dehydrogenase release (LDH, CytoToxOne kit, Promega) if necessary.
Cells were lysed with RIPA buffer complemented with phosphatase and protease inhibitors then lysates were spun down at 12,000 g for 10 min to remove any cellular debris. Lysates are then either directly tested for pSer396 by ELISA (Life Technology, Kit KHB7031) or loaded on NuPage Bis-Tris gels for western blot analysis. Colorimetric detection of ELISA signal is performed by Cytation3 plate reader (Biotek) and the chemiluminescence signal for HRP-linked antibodies used in western blotting is detected using a Carestream Image Station. The same pSer396 antibody is used for detection of pTau in both assays.
In experiment [4] the test system is Wnt activity (Sp5-Luc reporter in SW480 colon carcinoma cells). In words: Wnt activity screening assay (Sp5-Luc reporter gene assay). In kind it is cell-based, human. The note with it: Homo sapiens; for inhibition at 10 µM: SW480, read-out: percent inhibition at 10 μM; for pEC50: Sp5-Luc reporter, SW480 cells, 36 to 48 hours. In outline: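 SW480 cells stably carrying an Sp5 promoter (eight TCF/LEF sites)-firefly luciferase reporter were plated in DMEM with 1% FBS and treated with a 10-point, 1:3 dilution series from 10 μM (0.1% DMSO) for 36 to 48 h at 37° C. Luminescence was normalized to DMSO controls, and EC50 came from four-parameter nonlinear regression.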

The target in another experiment is DYRK1A kinase (Homo sapiens (Human), UniProt Q13627). In words: DYRK1A kinase assay (Ser/Thr 18 peptide Z-lyte, FRET).
Setting [5] is: DYRK1A kinase, method text calls the value IC50.

These results are taken from US10604514B2, “6-(5-membered heteroaryl)isoquinolin-3-yl carboxamides and preparation and use thereof” (Samumed, LLC, priority 2017, dated 2020).

pEC50: −log10 of the molar value. Where two headings read alike, the source gives them in different places. Where only a bound is given, the exact number is not on record here.

Chain of GSK3β kinase (P49841 whole entry): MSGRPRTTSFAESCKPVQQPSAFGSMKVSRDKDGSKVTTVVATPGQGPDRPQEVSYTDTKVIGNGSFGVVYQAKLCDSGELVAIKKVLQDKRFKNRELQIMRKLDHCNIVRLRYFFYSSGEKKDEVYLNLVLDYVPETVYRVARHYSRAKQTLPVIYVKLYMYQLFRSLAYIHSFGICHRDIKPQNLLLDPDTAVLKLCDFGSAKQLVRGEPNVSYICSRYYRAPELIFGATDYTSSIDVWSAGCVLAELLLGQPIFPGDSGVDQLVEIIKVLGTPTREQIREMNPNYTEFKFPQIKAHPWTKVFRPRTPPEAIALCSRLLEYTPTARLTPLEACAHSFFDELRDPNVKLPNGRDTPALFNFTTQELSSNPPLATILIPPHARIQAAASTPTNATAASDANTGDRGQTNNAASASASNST

Take `Cc1nnc(-c2ccc3cnc(NC(=O)C4(F)CCNCC4)cc3c2)s1` [Compound 25, 4-Fluoro-N-(6-(5-methyl-1,3,4-thiadiazol-2-yl)isoquinolin-3-yl)piperidine-4-carboxamide]: the pEC50 in experiment [1] is under 5.00; on GSK3β kinase it was 6.50; with IL-6 it was under 5.00; in experiment [2], 5.41; in experiment [3], 6.37; in experiment [4], under 5.00. Besides, the pEC50 at DYRK1A kinase (setting [5]) is 7.85. Besides, the inhibition at 10 µM in experiment [1] was determined as 40.3%; in the experiment with IL-6 it was 8%; in experiment [4], 34.3%.

In the case of `Cc1ncc(-c2ccc3cnc(NC(=O)[C@H]4CC[C@H](N)CC4)cc3c2)o1` [Compound 149, trans-4-amino-N-(6-(2-methyloxazol-5-yl)isoquinolin-3-yl)cyclohexane-1-carboxamide], the negative-log EC50 (pEC50) in experiment [1] was 5.87; on GSK3β kinase, 6.89; in the experiment on IL-6, 6.42; in experiment [2], 6.67; in experiment [3], 5.96; in experiment [4] it was 5.85. At DYRK1A kinase (setting [5]), this molecule gave a pEC50 of 8.15.

Regarding `Cn1cnnc1-c1ccc2cnc(NC(=O)CN3CCOCC3)cc2c1` [Compound 14, N-(6-(4-Methyl-4H-1,2,4-triazol-3-yl)isoquinolin-3-yl)-2-morpholinoacetamide], the negative logarithm of the EC50 (pEC50) in experiment [1] is 5.26; on GSK3β kinase it was 7.32; in the experiment with IL-6, under 5.00; in experiment [2], 5.86; in experiment [3] it was 6.42; in experiment [4], 5.27. In addition, the pEC50 on DYRK1A kinase (setting [5]) was 7.48. For the same molecule, the inhibition at 10 µM in the experiment on IL-6 worked out at 12.5%.

Regarding `Cn1cc(-c2ccc3cnc(NC(=O)CN4CCOCC4)cc3c2)nn1` [Compound 11, N-(6-(1-Methyl-1H-1,2,3-triazol-4-yl)isoquinolin-3-yl)-2-morpholinoacetamide], the pEC50 in experiment [1] is under 5.00; at GSK3β kinase, 8.00; in the experiment on IL-6 it was under 5.00; in experiment [2], under 5.00; in experiment [3] it was 6.72; in experiment [4] it was 5.55. In addition, at DYRK1A kinase (setting [5]), the pEC50 is 8.00. The inhibition at 10 µM in experiment [1] came to 46.3%; in the experiment with IL-6, 38.4%; in experiment [2], 3.8%.

As for `Cc1ncc(-c2ccc3cnc(NC(=O)[C@H]4CC[C@H](CO)CC4)cc3c2)o1` [Compound 43, trans-4-(hydroxymethyl)-N-(6-(2-methyloxazol-5-yl)isoquinolin-3-yl)cyclohexane-1-carboxamide], the pEC50 in experiment [1] was 5.30; at GSK3β kinase it was 7.18; in the experiment with IL-6, 5.97; in experiment [2], 6.64; in experiment [3], 6.44; in experiment [4] it was 6.62. For the same molecule, the pEC50 on DYRK1A kinase (setting [5]) is 8.70.

As for `[2H]C([2H])([2H])N([C@H]1CC[C@H](C(=O)Nc2cc3cc(-c4cnn(C)c4)ccc3cn2)CC1)C([2H])([2H])[2H]` [Compound 145, trans-4-(Bis(methyl-d3)amino)-N-(6-(1-methyl-1H-pyrazol-4-yl)isoquinolin-3-yl)cyclohexane-1-carboxamide], the pEC50 in experiment [1] was 5.83; at GSK3β kinase it was 7.10; in the experiment with IL-6, 6.43; in experiment [2] it was 7.14; in experiment [3], 6.30; in experiment [4] it was 5.74. The molecule further showed a pEC50 at DYRK1A kinase of 8.70.

Take `Cc1nnc(-c2ccc3cnc(NC(=O)N4CCC(NCCC(F)(F)F)CC4)cc3c2)s1` [Compound 147, N-(6-(5-Methyl-1,3,4-thiadiazol-2-yl)isoquinolin-3-yl)-4-((3,3,3-trifluoropropyl)amino)piperidine-1-carboxamide]: the pEC50 in experiment [1] was 5.38; at GSK3β kinase, 7.43; in the experiment on IL-6, under 5.00; in experiment [2] it was 5.78; in experiment [3], 5.96; in experiment [4] it was 5.48. On DYRK1A kinase (setting [5]), the pEC50 was 7.74. Moreover, the inhibition at 10 µM in the experiment on IL-6 amounted to 36.8%.

As to `[2H]c1c(NC(=O)CN2CCOCC2)ncc2ccc(-c3nnc(C)s3)cc12` [Compound 135, N-(6-(5-Methyl-1,3,4-thiadiazol-2-yl)isoquinolin-3-yl-4-d)-2-morpholinoacetamide], the negative-log EC50 (pEC50) is under 5.00 in experiment [1]; 7.66 on GSK3β kinase; under 5.00 with IL-6; 5.67 in experiment [2]; 6.44 in experiment [3]; 5.25 in experiment [4]. The molecule also had a negative logarithm of the EC50 (pEC50) at DYRK1A kinase of 7.39. Also, the inhibition at 10 µM in experiment [1] was 27.8%; with IL-6, 0%.

With `Cc1nnc(-c2ccc3cnc(NC(=O)N4CCN(C)[C@H](C)C4)cc3c2)s1` [Compound 109, (R)-3,4-Dimethyl-N-(6-(5-methyl-1,3,4-thiadiazol-2-yl)isoquinolin-3-yl) piperazine-1-carboxamide], the pEC50 in experiment [1] is 5.38; at GSK3β kinase, 6.76; in the experiment with IL-6, under 5.00; in experiment [2], under 5.00; in experiment [3], 5.51; in experiment [4] it was 5.11. Besides, at DYRK1A kinase (setting [5]), the pEC50 is 8.00. In addition, the inhibition at 10 µM in the experiment on IL-6 was 6.9%; in experiment [2] it was 19.5%.

Consider `Cc1nnc(-c2ccc3cnc(NC(=O)[C@H]4CC[C@H](NCCF)CC4)cc3c2)s1` [Compound 200, trans-4-((2-Fluoroethyl)amino)-N-(6-(5-methyl-1,3,4-thiadiazol-2-yl)isoquinolin-3-yl)cyclohexane-1-carboxamide], for which the pEC50 in experiment [1] is 5.86; on GSK3β kinase, 7.85; in the experiment with IL-6, 5.40; in experiment [2], 6.27; in experiment [3], 7.02; in experiment [4] it was 6.08. Also, the pEC50 on DYRK1A kinase (setting [5]) was 8.22.

For the molecule `CN[C@H]1CCN(C(=O)Nc2cc3cc(-c4nnc(C)s4)ccc3cn2)C[C@@H]1F` [Compound 179, (3S,4S)-3-Fluoro-N-(6-(5-methyl-1,3,4-thiadiazol-2-yl)isoquinolin-3-yl)-4-(methylamino)piperidine-1-carboxamide], the pEC50 was 5.30 in experiment [1]; 7.59 at GSK3β kinase; under 5.00 in the experiment with IL-6; under 5.00 in experiment [2]; 5.89 in experiment [3]; 5.56 in experiment [4]. In addition, at DYRK1A kinase (setting [5]), the pEC50 was 7.74. In addition, the inhibition at 10 µM (in the experiment with IL-6; in experiment [2]) was 10.1% each time.

In the case of `[2H]C([2H])([2H])N([C@H]1CC[C@H](C(=O)Nc2cc3cc(-c4cnc(C)o4)ccc3cn2)CC1)C([2H])([2H])[2H]` [Compound 144, trans-4-(Bis(methyl-d3)amino)-N-(6-(2-methyloxazol-5-yl)isoquinolin-3-yl) cyclohexane-1-carboxamide], the pEC50 in experiment [1] was 5.42; on GSK3β kinase it was 7.68; in the experiment with IL-6, under 5.00; in experiment [2], 5.86; in experiment [3], under 5.00; in experiment [4] it was under 5.00. This molecule showed a pEC50 on DYRK1A kinase of 7.70. In addition, the inhibition at 10 µM in the experiment with IL-6 was determined as 14.3%; in experiment [4], 35.8%.

For `Cc1ncc(-c2ccc3cnc(NC(=O)[C@H]4CC[C@H](NCC(F)F)CC4)cc3c2)o1` [Compound 104, trans-4-((2,2-Difluoroethyl)amino)-N-(6-(2-methyloxazol-5-yl)isoquinolin-3-yl)cyclohexane-1-carboxamide], the pEC50 was 5.34 in experiment [1]; 6.83 on GSK3β kinase; 5.95 in the experiment with IL-6; 6.66 in experiment [2]; 6.15 in experiment [3]; 5.44 in experiment [4]. For the same molecule, at DYRK1A kinase (setting [5]), the pEC50 is 8.10.

Turning to `CC(C)CN1CCC(CC(=O)Nc2cc3cc(-c4cnn(C)c4)ccc3cn2)C1` (stereo not drawn) [Compound 4, 2-(1-Isobutylpyrrolidin-3-yl)-N-(6-(1-methyl-1H-pyrazol-4-yl)isoquinolin-3-yl)acetamide], the negative logarithm of the EC50 (pEC50) in experiment [1] was 6.04; on GSK3β kinase, 7.66; with IL-6, 6.31; in experiment [2], 6.64; in experiment [3], 7.16; in experiment [4], 6.14. Besides, on DYRK1A kinase (setting [5]), the pEC50 is 8.40.
